This is an account of results in patent US11453638B2, “Process method for producing pesticide by using carbon dioxide” (Nankai University, priority 2018, dated 2022).

Holding throughout (type): in vivo
For one data set, the system named is Culex pipiens pallens. As to the kind of experiment: Activity of killing Culex pipiens pallens larvae. The following applies: for Mortality: 10 ppm, 4th instar mosquito larvae in water, 24 h. The method, then: 2) Activity of killing Culexpipiens pallens larval: Culicides pallens, a normal indoor population. Weigh about 5 mg of the test compound into a penicillin vial, add 5 mL of acetone (or a suitable solvent), and shake to dissolve, i.e. 1000 μg·ml^−1 mother liquor. 0.5 mL mother liquor was removed and added into a 100 mL beaker containing […] of water. Ten 4th instar mosquito larvae were selected and poured into the beaker together with 10 mL of feeding liquid. The concentration of the liquid medicine was 10 μg·ml^−1. Place the treatment in the standard treatment room, and check the results 24 h. The blank control was an aqueous solution containing 0.5 mL of test solvent.

The test system of data set [1] is Ostrinia nubilalis Hubner. As to the kind of experiment: Activity of killing Ostrinia nubilalis Hubner (leaf soaking method). The note with it: for Mortality: 600 ppm (table), 3rd instar larvae, corn leaf dipping, 72 hours. The text has this:
4) Activity of killing Ostrinia nubilalis Hubner: Ostrinia nubilalis Hubner, a normal population raised indoors. Test method: leaf soaking method. In the leaf dipping method, corn leaves are dipped in a liquid medicine prepared by acetone ([…]), 10 3rd instar larvae are inoculated into a culture dish after the liquid medicine is dried, and 30 test larvae are shared for three times, mainly gastric toxicity and contact killing effects, and the feeding phenomenon of the larvae is observed. Mortality was examined 72 hours later.

For the next data set, the system named is Helicoverpa armigera. Nature of the data set: Activity of killing Helicoverpa armigera (leaf soaking method). The note with it: for Mortality: 600 ppm, third-instar larvae, corn leaf soaking, 72 hours. The method, then: 3) Activity of killing Helicoverpa armigera:Helicoverpa armigera, a normal population raised indoors. Test method: leaf soaking method. In the leaf soaking method, corn leaves are soaked in a liquid medicine prepared by acetone (600 ppm, 600 mg/L), ground and put into 24 holes after the liquid medicine is dried, one third-instar larva is inserted into each hole, 10 are used for each time, and three times are repeated, a total of 30 test insects are tested, mainly gastric toxicity and contact killing effects, and the feeding phenomenon of the larva is observed. Mortality was examined 72 hours later.

A further data set has as its system Mythimna separata Walker. Nature of the data set: Activity of killing Mythimna separata Walker (leaf dipping method). The note with it: for Mortality: 4th instar larvae, corn leaf dipping, 24 hours. The method, then:
1) Activity of killing Mythimna separata Walker: Mythimna separata Walker, a normal population raised indoors. In the leaf dipping method, corn leaves are dipped in a liquid medicine ([…]) prepared by acetone, and the 4th instar larvae are inoculated after the liquid medicine, mainly for stomach toxicity and contact killing, and the feeding phenomenon of the larvae is observed. Mortality was examined 24 hours.

For the compound `CC1(C)CC(=O)C(C(=O)Nc2ccccc2)=C(Nc2ccccc2)C1` [compound 3c], the Mortality in the data set with Culex pipiens pallens amounted to 80%; in data set [1] it was 15%; with Helicoverpa armigera, 10%; in the data set with Mythimna separata Walker (600 ppm), 30%.
Consider `CC1CC(=O)C(C(=O)Nc2ccccc2)=C(Nc2ccccc2)C1` (centres unmarked) [compound 3b], for which the Mortality stood at 70% in the data set on Culex pipiens pallens, 20% in data set [1], 15% in the data set with Helicoverpa armigera and 35% in the data set with Mythimna separata Walker (600 ppm).
`CCC1CC(=O)C(C(=O)Nc2ccccc2)=C(Nc2ccccc2)C1` (centres unmarked) [compound 3d]: the Mortality is on record as 20% in the data set with Culex pipiens pallens, 100% in data set [1], 100% with Helicoverpa armigera and 100% in the data set on Mythimna separata Walker (200 ppm). Further, the “lethal rate to Ostrinia nubilalis Hubner” value in data set [1] (concentration of 600 ppm) is listed as 100%. For the same compound, in the data set on Helicoverpa armigera (concentration of 600 ppm), the “lethal rate to cotton bollworm” value was determined as 100%. The “lethal rate to armyworm” value in the data set with Mythimna separata Walker (concentration of 200 ppm) came out at 100%.
As for `CCCC1CC(=O)C(C(=O)Nc2ccccc2)=C(Nc2ccccc2)C1` (centres unmarked) [compound 3e], the Mortality in the data set with Culex pipiens pallens worked out at 100%; in data set [1], 30%; in the data set on Helicoverpa armigera, 25%; in the data set on Mythimna separata Walker (600 ppm) it was 55%. In addition, in the data set with Culex pipiens pallens (concentration of 10 ppm), the “lethal rate to Culex pipiens larvae” value is reported as 100%.
